22 molecules from ChEMBL document CHEMBL4715742, “Design, synthesis and cytotoxic activities of novel 2,5-diketopiperazine derivatives” (Eur J Med Chem, 2016) can be followed below.

Holding throughout (assay type): functional, cell-based
One assay deals with MCF7. Briefly: Cytotoxicity against human MCF7 cells assessed as reduction in cell viability measured after 72 hrs by CCK8 assay.
A further assay relates to HeLa. The experiment in a line: Cytotoxicity against human HeLa cells assessed as reduction in cell viability measured after 72 hrs by CCK8 assay. (Formazan colour is commonly taken as a measure of viable cells.)
The subject of the next assay is HT-29. Briefly: Cytotoxicity against human HT-29 cells assessed as reduction in cell viability measured after 72 hrs by CCK8 assay.
The next assay has as its system U-937. Briefly: Cytotoxicity against human U-937 cells assessed as reduction in cell viability measured after 72 hrs by CCK8 assay.
Another assay deals with K562. Briefly: Cytotoxicity against human K562 cells assessed as reduction in cell viability measured after 72 hrs by CCK8 assay.
The next assay deals with HL-60. Briefly: Cytotoxicity against human HL-60 cells assessed as reduction in cell viability measured after 72 hrs by CCK8 assay.
Another assay has as its system DU-145. Briefly: Cytotoxicity against human DU-145 cells assessed as reduction in cell viability measured after 72 hrs by CCK8 assay.
For another assay, the system named is A549. Briefly: Cytotoxicity against human A549 cells assessed as reduction in cell viability measured after 72 hrs by CCK8 assay.
Where [1] appears, read: Homo sapiens, MCF7, 72 h, read-out: IC50.
The mark [2] stands for this setting: Homo sapiens, HeLa, 72 h, read-out: IC50.
The mark [3] stands for this setting: Homo sapiens, HT-29, 72 h, read-out: IC50.
Where [4] appears, read: Homo sapiens, U-937, 72 h, read-out: IC50.
Where [5] appears, read: Homo sapiens, K562, 72 h, read-out: IC50.
Setting [6] is: Homo sapiens, HL-60, 72 h, read-out: IC50.
[7] abbreviates: Homo sapiens, DU-145, 72 h, read-out: IC50.
The mark [8] stands for this setting: Homo sapiens, A549, 72 h, read-out: IC50.

In general, IC50 refers to the point on the concentration scale where inhibition reaches its midpoint. Turning to `C=CCn1c(=O)/c(=C/CCCCCCC)[nH]c(=O)/c1=C/c1cccc(OC)c1`, the IC50 entry with MCF7 (mcf7), in the assay on HeLa (hela), with HT-29 (ht-29), with U-937 (u-937), with K562 (k562) and in the assay on HL-60 (hl-60) was “Not Active” throughout. The IC50 entry in the assay on DU-145 (du-145) and with A549 (a549) was “Not Active” in each case.
In the case of `C=CCn1c(=O)/c(=C/CCCCCCCCCC)[nH]c(=O)/c1=C/c1ccc(OC)cc1`, the IC50 entry in the assay on MCF7 (mcf7), in the assay on HeLa (hela), in the assay with HT-29 (ht-29), with U-937 (u-937), in the assay with K562 (k562) and with HL-60 (hl-60) was “Not Active” each time. Besides, the IC50 entry in the assay on DU-145 (du-145) and with A549 (a549) was “Not Active” in each case.
Consider `C=CCn1c(=O)/c(=C/CCCC)[nH]c(=O)/c1=C/c1ccccc1OC`, for which the IC50 in the assay with MCF7 (setting [1]) worked out at 3.1 µM; in the assay on HeLa (setting [2]) it was 2.4 µM; in the assay with HT-29 (setting [3]) it was 3.3 µM; with U-937 (setting [4]) it was 0.9 µM; in the assay with K562 (setting [5]), 1.4 µM; with HL-60 (setting [6]) it was 0.5 µM. Also, the IC50 stood at 4.3 µM with DU-145 (setting [7]) and 4 µM in the assay with A549 (setting [8]).
With `Cn1c(=O)/c(=C/c2ccccc2)[nH]c(=O)/c1=C/c1ccccc1`, the IC50 in the assay on MCF7 (setting [1]) was 5.1 µM; with HeLa (setting [2]) it was 4.9 µM; in the assay on HT-29 (setting [3]), 6.5 µM; with U-937 (setting [4]) it was 1.4 µM; in the assay on K562 (setting [5]), 2.9 µM; in the assay on HL-60 (hl-60), “Not Active”. Moreover, the IC50 with DU-145 (setting [7]) is 9.4 µM; with A549 (setting [8]), 7.8 µM.
On to `C=CCn1c(=O)/c(=C/CCC)[nH]c(=O)/c1=C/c1ccc(OC)cc1`, for which the IC50 with MCF7 (setting [1]) amounted to 9.3 µM; in the assay with HeLa (setting [2]), 7.1 µM; in the assay on HT-29 (setting [3]) it was 8.3 µM; in the assay on U-937 (setting [4]), 2.2 µM; in the assay on K562 (setting [5]), 2.9 µM; with HL-60 (setting [6]) it was 6.2 µM. For the same molecule, the values for the IC50 with DU-145 (setting [7]) and with A549 (setting [8]) were 13.1 µM and 12.3 µM, respectively.
Turning to `C=CCn1c(=O)/c(=C/CCCCC)[nH]c(=O)/c1=C/c1cccc(OC)c1`, the IC50 entry in the assay on MCF7 (mcf7), in the assay with HeLa (hela), in the assay on HT-29 (ht-29), with U-937 (u-937), in the assay on K562 (k562) and with HL-60 (hl-60) was “Not Active” throughout. The IC50 result in the assay with DU-145 (du-145) and in the assay on A549 (a549) was “Not Active” in each case.
Consider `C=CCn1c(=O)/c(=C/CCCCCCCCC)[nH]c(=O)/c1=C/c1ccc(OC)cc1`, for which the IC50 entry is “Not Active” in the assay with MCF7 (mcf7); “Not Active” in the assay with HeLa (hela); “Not Active” in the assay on HT-29 (ht-29); 10.3 µM in the assay with U-937 (setting [4]); 11.7 µM in the assay on K562 (setting [5]); 5.3 µM with HL-60 (setting [6]). For the same molecule, the IC50 entry in the assay on DU-145 (du-145) and with A549 (a549) was “Not Active” each time.
Turning to `C=CCn1c(=O)/c(=C/CCCCC)[nH]c(=O)/c1=C/c1ccc(OC)cc1`, the IC50 was 2.3 µM in the assay on MCF7 (setting [1]); 1.1 µM with HeLa (setting [2]); 1.7 µM in the assay on HT-29 (setting [3]); 0.5 µM with U-937 (setting [4]); 0.7 µM with K562 (setting [5]); “Not Active” in the assay with HL-60 (hl-60). The IC50 is 2.1 µM in the assay on DU-145 (setting [7]) and 1.9 µM in the assay on A549 (setting [8]).
For `C=CCn1c(=O)/c(=C/CCCCCCCC)[nH]c(=O)/c1=C/c1cccc(OC)c1`, the IC50 result in the assay on MCF7 (mcf7), in the assay on HeLa (hela), in the assay with HT-29 (ht-29), in the assay on U-937 (u-937), in the assay with K562 (k562) and in the assay on HL-60 (hl-60) was “Not Active” in each case. The IC50 result with DU-145 (du-145) and in the assay with A549 (a549) was “Not Active” each time.
Consider `C=CCn1c(=O)/c(=C/CCC)[nH]c(=O)/c1=C/c1cccc(OC)c1`, for which the IC50 result with MCF7 (mcf7), with HeLa (hela), in the assay with HT-29 (ht-29), with U-937 (u-937), in the assay on K562 (k562) and in the assay with HL-60 (hl-60) was “Not Active” throughout. In addition, the IC50 entry in the assay on DU-145 (du-145) and in the assay with A549 (a549) was “Not Active” in each case.
As to `C=CCn1c(=O)/c(=C/CCCCCCC)[nH]c(=O)/c1=C/c1ccccc1OC`, the IC50 result in the assay on MCF7 (mcf7), with HeLa (hela), with HT-29 (ht-29), in the assay with U-937 (u-937), with K562 (k562) and in the assay on HL-60 (hl-60) was “Not Active” each time. Moreover, the IC50 result in the assay on DU-145 (du-145) and in the assay on A549 (a549) was “Not Active” each time.
Take `C=CCn1c(=O)/c(=C/CCCCCCCCC)[nH]c(=O)/c1=C/c1ccccc1OC`: the IC50 entry was “Not Active” with MCF7 (mcf7); “Not Active” in the assay on HeLa (hela); “Not Active” in the assay on HT-29 (ht-29); 18.8 µM with U-937 (setting [4]); 10.4 µM in the assay with K562 (setting [5]); 3.4 µM in the assay with HL-60 (setting [6]). Also, the IC50 entry in the assay with DU-145 (du-145) and with A549 (a549) was “Not Active” in each case.
Regarding `C=CCn1c(=O)/c(=C/CCCCCCCCCCCCCCC)[nH]c(=O)/c1=C/c1ccc(OC)cc1`, the IC50 entry in the assay with MCF7 (mcf7), in the assay with HeLa (hela), with HT-29 (ht-29), in the assay with U-937 (u-937), with K562 (k562) and in the assay on HL-60 (hl-60) was “Not Active” each time. Moreover, the IC50 entry in the assay on DU-145 (du-145) and in the assay on A549 (a549) was “Not Active” throughout.
In the case of `C=CCn1c(=O)/c(=C/CCCCCCCCCCC)[nH]c(=O)/c1=C/c1ccc(OC)cc1`, the IC50 result in the assay with MCF7 (mcf7), in the assay with HeLa (hela), in the assay with HT-29 (ht-29), in the assay with U-937 (u-937), in the assay on K562 (k562) and in the assay on HL-60 (hl-60) was “Not Active” each time. Further, the IC50 entry in the assay on DU-145 (du-145) and in the assay with A549 (a549) was “Not Active” throughout.
For `C=CCn1c(=O)/c(=C/CCCCCCCC)[nH]c(=O)/c1=C/c1ccc(OC)cc1`, the IC50 was found to be 10.1 µM in the assay on MCF7 (setting [1]); 8.1 µM in the assay on HeLa (setting [2]); 10.8 µM in the assay with HT-29 (setting [3]); 3.7 µM with U-937 (setting [4]); 5.6 µM in the assay on K562 (setting [5]); 26.5 µM in the assay with HL-60 (setting [6]). For the same molecule, the IC50 in the assay with DU-145 (setting [7]) was 7.9 µM; in the assay on A549 (setting [8]), 15.8 µM.
As for `C=CCn1c(=O)/c(=C/CCCCCC)[nH]c(=O)/c1=C/c1cccc(OC)c1`, the IC50 result in the assay on MCF7 (mcf7), in the assay with HeLa (hela), with HT-29 (ht-29), in the assay on U-937 (u-937), in the assay with K562 (k562) and in the assay with HL-60 (hl-60) was “Not Active” each time. For the same molecule, the IC50 entry in the assay on DU-145 (du-145) and in the assay on A549 (a549) was “Not Active” throughout.
`C=CCn1c(=O)/c(=C/CCCCCC)[nH]c(=O)/c1=C/c1ccc(OC)cc1`: the IC50 in the assay on MCF7 (setting [1]) worked out at 2.4 µM; with HeLa (setting [2]) it was 1.6 µM; with HT-29 (setting [3]), 1.6 µM; in the assay on U-937 (setting [4]), 0.6 µM; with K562 (setting [5]), 0.9 µM; in the assay on HL-60 (setting [6]), 3.4 µM. In addition, the IC50 in the assay on DU-145 (setting [7]) amounted to 2.2 µM; with A549 (setting [8]), 2 µM.
In the case of `C=CCn1c(=O)/c(=C/CCCCCCCCCCCCCCC)[nH]c(=O)/c1=C/c1ccccc1OC`, the IC50 result in the assay on MCF7 (mcf7), in the assay with HeLa (hela), in the assay with HT-29 (ht-29), with U-937 (u-937), in the assay with K562 (k562) and in the assay on HL-60 (hl-60) was “Not Active” throughout. In addition, the IC50 result in the assay on DU-145 (du-145) and with A549 (a549) was “Not Active” throughout.
As to `C=CCn1c(=O)/c(=C/CCC)[nH]c(=O)/c1=C/c1ccccc1OC`, the IC50 with MCF7 (setting [1]) turned out to be 11.1 µM; with HeLa (setting [2]), 21.4 µM; in the assay on HT-29 (setting [3]) it was 28.9 µM; in the assay with U-937 (setting [4]), 6.4 µM; in the assay with K562 (setting [5]) it was 8.6 µM; in the assay on HL-60 (setting [6]), 20.4 µM. Further, the IC50 result in the assay on DU-145 (du-145) and with A549 (a549) was “Not Active” in each case.
For `C=CCn1c(=O)/c(=C/CCCCCCCCCC)[nH]c(=O)/c1=C/c1ccccc1OC`, the IC50 result in the assay on MCF7 (mcf7), in the assay on HeLa (hela), in the assay with HT-29 (ht-29), in the assay on U-937 (u-937), in the assay with K562 (k562) and in the assay with HL-60 (hl-60) was “Not Active” each time. Besides, the IC50 entry in the assay with DU-145 (du-145) and with A549 (a549) was “Not Active” each time.
In the case of `C=CCn1c(=O)/c(=C/CC)[nH]c(=O)/c1=C/c1ccc(OC)cc1`, the concentration for half-maximal inhibition (IC50) in the assay on MCF7 (setting [1]) is 4.3 µM; in the assay with HeLa (setting [2]) it was 4.6 µM; with HT-29 (setting [3]) it was 4.2 µM; in the assay with U-937 (setting [4]) it was 1.48 µM; in the assay on K562 (setting [5]), 2.1 µM; in the assay on HL-60 (hl-60), “Not Active”. Further, the IC50 with DU-145 (setting [7]) was determined as 8.9 µM; with A549 (setting [8]), 6.1 µM.
Take `C=CCn1c(=O)/c(=C/CCCCCCCCCCC)[nH]c(=O)/c1=C/c1cccc(OC)c1`: the IC50 result in the assay with MCF7 (mcf7), with HeLa (hela), with HT-29 (ht-29), with U-937 (u-937), in the assay with K562 (k562) and in the assay with HL-60 (hl-60) was “Not Active” in each case. For the same molecule, the IC50 result in the assay on DU-145 (du-145) and in the assay with A549 (a549) was “Not Active” throughout.
